The text below walks through data of ChEMBL document CHEMBL3045439, “Isoforms of the heteropteran Nezara viridula ecdysone receptor: protein characterisation, RH5992 insecticide binding and homology modelling” (Pest Manag Sci, 2011).

What all share (format): protein-complex assay
For assay [1], the target named is T1, Ecdysone receptor (Nezara viridula, UniProt E5L6Y0+E5L6Y1).
T1 sequence (E5L6Y1 whole entry): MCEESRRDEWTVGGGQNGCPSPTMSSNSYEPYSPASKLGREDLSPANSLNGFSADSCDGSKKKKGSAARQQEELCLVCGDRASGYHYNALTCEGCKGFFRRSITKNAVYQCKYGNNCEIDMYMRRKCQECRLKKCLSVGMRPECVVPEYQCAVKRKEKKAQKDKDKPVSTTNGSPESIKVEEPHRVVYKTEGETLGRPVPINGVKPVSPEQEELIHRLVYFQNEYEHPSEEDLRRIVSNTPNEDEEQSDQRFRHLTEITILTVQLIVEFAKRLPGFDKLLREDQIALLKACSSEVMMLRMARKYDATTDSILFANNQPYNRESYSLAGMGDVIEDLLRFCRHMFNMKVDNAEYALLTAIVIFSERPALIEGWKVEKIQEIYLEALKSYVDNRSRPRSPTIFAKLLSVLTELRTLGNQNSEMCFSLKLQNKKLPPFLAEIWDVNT
T1 sequence (E5L6Y0 whole entry): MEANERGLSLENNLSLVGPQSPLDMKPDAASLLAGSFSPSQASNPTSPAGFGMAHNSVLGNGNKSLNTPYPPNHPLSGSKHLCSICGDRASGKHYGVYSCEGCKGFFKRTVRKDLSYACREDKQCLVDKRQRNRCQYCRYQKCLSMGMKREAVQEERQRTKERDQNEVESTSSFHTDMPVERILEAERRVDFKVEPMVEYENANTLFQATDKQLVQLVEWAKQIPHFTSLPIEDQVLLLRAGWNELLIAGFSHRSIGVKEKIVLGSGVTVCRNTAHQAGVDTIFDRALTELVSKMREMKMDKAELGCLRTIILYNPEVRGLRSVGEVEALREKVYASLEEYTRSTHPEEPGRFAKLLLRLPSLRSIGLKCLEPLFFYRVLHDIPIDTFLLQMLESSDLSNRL
Description: Displacement of [3H]PonA from recombinant Nezara viridula EcR11. Background: Displacement assays read how much labelled ligand stays bound in the presence of the test substance.

Assay [2] concerns the target T1, Ecdysone receptor. The experiment in a line: Displacement of [3H]PonA from recombinant Nezara viridula EcR10.
Assay [3] concerns the target T1, Ecdysone receptor. Description: Binding affinity to Nezara viridula EcR.
In assay [4] the target is T2, Ecdysone receptor (Leptinotarsa decemlineata, UniProt Q4W6C8+Q4W6D0).
T2 sequence (Q4W6D0 whole entry): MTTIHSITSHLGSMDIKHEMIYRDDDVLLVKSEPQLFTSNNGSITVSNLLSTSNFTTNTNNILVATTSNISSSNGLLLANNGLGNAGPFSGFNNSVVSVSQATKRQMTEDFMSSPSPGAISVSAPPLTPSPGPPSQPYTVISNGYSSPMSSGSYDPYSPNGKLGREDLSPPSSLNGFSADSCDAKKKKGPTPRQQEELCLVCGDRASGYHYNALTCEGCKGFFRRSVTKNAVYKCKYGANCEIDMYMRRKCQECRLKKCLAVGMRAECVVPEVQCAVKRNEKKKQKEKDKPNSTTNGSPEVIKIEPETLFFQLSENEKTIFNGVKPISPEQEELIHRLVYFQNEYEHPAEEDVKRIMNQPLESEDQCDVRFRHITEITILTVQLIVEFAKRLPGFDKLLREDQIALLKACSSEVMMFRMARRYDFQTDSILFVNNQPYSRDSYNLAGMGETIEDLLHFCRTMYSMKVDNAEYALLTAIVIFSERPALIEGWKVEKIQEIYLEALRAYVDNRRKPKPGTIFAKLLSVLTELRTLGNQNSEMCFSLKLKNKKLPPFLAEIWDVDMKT
T2 sequence (Q4W6C8 whole entry): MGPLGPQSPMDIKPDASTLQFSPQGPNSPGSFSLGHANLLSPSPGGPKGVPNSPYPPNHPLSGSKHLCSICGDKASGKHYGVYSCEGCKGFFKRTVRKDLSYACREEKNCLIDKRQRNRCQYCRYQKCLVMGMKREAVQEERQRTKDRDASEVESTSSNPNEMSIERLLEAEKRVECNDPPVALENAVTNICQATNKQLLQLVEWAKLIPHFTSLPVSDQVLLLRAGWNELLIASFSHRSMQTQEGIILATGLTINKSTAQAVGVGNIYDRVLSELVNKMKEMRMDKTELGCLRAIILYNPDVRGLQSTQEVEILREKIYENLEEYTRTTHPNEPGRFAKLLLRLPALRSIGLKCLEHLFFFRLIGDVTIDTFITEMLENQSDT
The experiment in a line: Binding affinity to Leptinotarsa decemlineata EcR.

Assay [5] deals with T3, Ecdysone receptor (Spodoptera frugiperda, UniProt Q8MWR1+Q8MWR2).
T3 sequence (Q8MWR2 whole entry): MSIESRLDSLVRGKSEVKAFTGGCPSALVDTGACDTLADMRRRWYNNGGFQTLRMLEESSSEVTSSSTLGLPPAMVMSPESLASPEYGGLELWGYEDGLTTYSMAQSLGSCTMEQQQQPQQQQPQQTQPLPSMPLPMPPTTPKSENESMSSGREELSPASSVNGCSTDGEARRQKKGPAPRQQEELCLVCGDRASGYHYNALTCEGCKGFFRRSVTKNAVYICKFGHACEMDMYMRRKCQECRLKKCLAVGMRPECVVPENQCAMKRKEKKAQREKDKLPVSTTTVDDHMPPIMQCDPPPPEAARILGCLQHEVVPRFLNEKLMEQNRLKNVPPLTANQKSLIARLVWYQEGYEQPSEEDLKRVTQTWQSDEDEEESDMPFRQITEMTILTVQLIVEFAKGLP
T3 sequence (Q8MWR1 whole entry): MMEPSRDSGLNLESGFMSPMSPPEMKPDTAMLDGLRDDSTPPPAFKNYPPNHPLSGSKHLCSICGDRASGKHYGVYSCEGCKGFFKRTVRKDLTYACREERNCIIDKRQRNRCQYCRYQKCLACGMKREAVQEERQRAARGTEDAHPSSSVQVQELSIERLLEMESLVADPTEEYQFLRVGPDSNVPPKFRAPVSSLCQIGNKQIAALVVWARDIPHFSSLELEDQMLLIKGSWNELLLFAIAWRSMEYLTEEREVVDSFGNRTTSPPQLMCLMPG
Description: Binding affinity to Spodoptera frugiperda (fall armyworm) EcR.

The target in assay [6] is T4, Ecdysone receptor (Drosophila melanogaster, UniProt P20153+P34021).
T4 sequence (P34021 whole entry): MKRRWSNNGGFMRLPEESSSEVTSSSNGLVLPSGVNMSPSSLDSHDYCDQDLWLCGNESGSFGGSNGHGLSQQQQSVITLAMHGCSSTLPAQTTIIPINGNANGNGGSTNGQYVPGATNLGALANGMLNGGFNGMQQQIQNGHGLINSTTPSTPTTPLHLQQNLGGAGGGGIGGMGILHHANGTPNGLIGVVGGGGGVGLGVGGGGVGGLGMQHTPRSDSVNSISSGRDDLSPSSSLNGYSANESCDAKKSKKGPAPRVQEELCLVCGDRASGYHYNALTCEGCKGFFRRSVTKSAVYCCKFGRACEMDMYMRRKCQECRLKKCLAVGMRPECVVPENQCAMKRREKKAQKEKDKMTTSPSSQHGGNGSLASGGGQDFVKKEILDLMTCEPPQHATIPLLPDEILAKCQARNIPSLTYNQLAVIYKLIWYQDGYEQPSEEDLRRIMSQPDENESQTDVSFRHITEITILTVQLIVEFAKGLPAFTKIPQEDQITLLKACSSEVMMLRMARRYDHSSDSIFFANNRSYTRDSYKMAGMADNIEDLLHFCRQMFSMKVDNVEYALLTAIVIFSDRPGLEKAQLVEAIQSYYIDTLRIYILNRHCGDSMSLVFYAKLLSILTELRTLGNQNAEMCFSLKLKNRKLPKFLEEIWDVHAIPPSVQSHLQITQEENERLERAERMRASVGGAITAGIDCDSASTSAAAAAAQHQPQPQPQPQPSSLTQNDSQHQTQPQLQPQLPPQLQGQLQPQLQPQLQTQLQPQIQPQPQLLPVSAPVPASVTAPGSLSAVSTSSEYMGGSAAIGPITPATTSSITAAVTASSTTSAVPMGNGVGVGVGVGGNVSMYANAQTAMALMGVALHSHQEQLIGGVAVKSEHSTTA
T4 sequence (P20153 whole entry): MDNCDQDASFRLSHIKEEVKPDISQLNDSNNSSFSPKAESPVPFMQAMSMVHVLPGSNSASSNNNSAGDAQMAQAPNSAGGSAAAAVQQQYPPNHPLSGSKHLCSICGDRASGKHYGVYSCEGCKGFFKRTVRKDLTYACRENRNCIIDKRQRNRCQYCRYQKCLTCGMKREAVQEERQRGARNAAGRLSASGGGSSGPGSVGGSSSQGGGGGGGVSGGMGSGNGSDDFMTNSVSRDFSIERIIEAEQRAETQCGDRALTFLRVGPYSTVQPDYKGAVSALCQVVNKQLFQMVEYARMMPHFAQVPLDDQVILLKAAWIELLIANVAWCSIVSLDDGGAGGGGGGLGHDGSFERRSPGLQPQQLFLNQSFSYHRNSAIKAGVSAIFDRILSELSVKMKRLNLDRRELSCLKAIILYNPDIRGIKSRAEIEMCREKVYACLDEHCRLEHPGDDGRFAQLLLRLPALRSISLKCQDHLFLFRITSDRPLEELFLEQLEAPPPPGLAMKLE
The experiment in a line: Binding affinity to Drosophila melanogaster EcR.

Structures are written as SMILES.

As for `CC(CO)CC[C@@H](O)[C@](C)(O)[C@H]1CC[C@@]2(O)C3=CC(=O)[C@@H]4C[C@@H](O)[C@@H](O)C[C@]4(C)[C@H]3CC[C@]12C` (stereo not given in full) [INOKOSTERONE], on Ecdysone receptor [1], the IC50 was found to be 7000 nM and the Ki worked out at 6000 nM. Moreover, on Ecdysone receptor [2], the IC50 is 8000 nM and the Ki came to 6700 nM.

For the compound `CC(C)CC[C@@H](O)[C@](C)(O)[C@H]1CC[C@@]2(O)C3=CC(=O)[C@]4(O)C[C@@H](O)[C@@H](O)C[C@]4(C)[C@H]3[C@H](O)C[C@]12C` [MURISTERONE A], the IC50 on Ecdysone receptor [1] worked out at 150 nM; at Ecdysone receptor [2] it was 130 nM. Besides, the Ki on Ecdysone receptor [1] and at Ecdysone receptor [2] was 100 nM throughout.

With `C[C@H]([C@H](O)CCC(C)(C)O)[C@H]1CC[C@@]2(O)C3=CC(=O)[C@@H]4C[C@@H](O)[C@@H](O)C[C@]4(C)[C@H]3CC[C@]12C` [ECDYSONE], on Ecdysone receptor [1], the IC50 was 60000 nM and the Ki worked out at 51100 nM. In addition, on Ecdysone receptor [2], the half-inhibitory concentration (IC50) was found to be 60000 nM and the Ki was 50400 nM.

Take `C[C@H](C[C@@H](O)[C@](C)(O)[C@H]1CC[C@@]2(O)C3=CC(=O)[C@@H]4C[C@@H](O)[C@@H](O)C[C@]4(C)[C@H]3CC[C@]12C)C(C)(C)O` [MAKISTERONE A]: the IC50 was 1380 nM at Ecdysone receptor [3], 1740 nM on Ecdysone receptor [4], 389 nM on Ecdysone receptor [5] and 1380 nM on Ecdysone receptor [6].

On to `CC(C)CC[C@@H](O)[C@](C)(O)[C@H]1CC[C@@]2(O)C3=CC(=O)[C@@H]4C[C@@H](O)[C@@H](O)C[C@]4(C)[C@H]3CC[C@]12C` [PONASTERONE A], for which the IC50 on Ecdysone receptor [1] is 250 nM; on Ecdysone receptor [2], 280 nM. Also, the Ki at Ecdysone receptor [1] and on Ecdysone receptor [2] was 200 nM in each case.

What is called IC50 is the concentration that inhibits the measured activity by half. For orientation: Ki means a dissociation constant, usually derived from enzyme kinetics or from competition with a known ligand.
